Test results from patent US9663454B2, “3-aryl propiolonitrile compounds for thiol labeling” (Universite de Strasbourg, priority 2013, dated 2017).
Entries after “also recorded” stand apart in the source; their conditions may differ. Marks after values point to notes of the source that are not given here.

How the values were obtained:
[1] = Hydrolytic stability in PBS, HPLC monitoring; format: physicochemical
Procedure: FIG. 3a-3b: HPLC monitoring of the hydrolysis of phenylmaleimide (2) in PBS (1×, pH 7.6) at 1 mM concentration at 25° C.; the peaks correspond, from the earliest to the latest, to
[drawing 5] conversion was monitored by disappearance of the starting material (a). Pseudo first order rate constant for the reaction was determined by plotting the ln([phenylmaleimide]) versus time and analyzing by linear regression. The constant corresponds to the absolute value of determined slope (b).
FIG. 4: HPLC monitoring of hydrolytic stability of N-(4-(cyanoethynyl)phenyl)acetamide (pNHAc-APN, 11) in PBS (1×, pH 7.6) at 1 mM concentration at 25° C. Conversion was monitored by disappearance of the starting material; the peaks correspond, from the earliest to the latest, to
To a vial containing 980 μL of PBS (1×, pH 7.6), were subsequently added 10 μL of a stock solution of benzamide and 10 μL of a stock solution of electrophile (phenylmaleimide 1 or
[drawing 112] 11) to give final concentration of 1 mM (both internal standard and electrophile). Aliquots of the reaction mixture (50 μL) were analyzed by HPLC for 5 hours of hydrolysis (injection every 30 min). Areas under the peaks of the starting materials and hydrolysis products were normalized according to the area of the peak of the internal standard.

[2] = Labeling of a cysteine derivative: conversion of arylpropiolonitriles 1-12 with AcCysNHBn, HPLC; conditions: 50 μM of each reagent, 25° C., PBS pH 7.6
Procedure: To a vial containing 985 μL of PBS (1×, pH 7.6), were subsequently added 5 μL of the stock solution of benzamide (10 mM in water), 5 μL of the stock solution of arylpropiolonitrile (1-12, 10 mM in DMSO) and 5 μL of stock solution of AcCysNHBn (7 m, 10 mM in DMSO). […] Areas under the peaks of the starting materials and hydrolysis products were normalized according to the area of the peak of the internal standard.
Obtained results are summed up in table 2 below, which presents the conversion of the compounds 1-12 in 30 minutes in presence of 7m at 50 μM concentration of each reagent and 25° C. The reaction is extremely sensitive to steric hindrances induced by substituents in ortho-position to propiolonitrile group (entries 1, 5, 8-9, 4) as well as to electronic effect of the substituent: −I and −M substituents increase (entries 10 and 12), while +M substituents decrease the reactivity of the compound (entries 3 and 7).

Trastuzumab [3] = test: Conjugation of Trastuzumab and TAMRA-SH via linker, SDS-PAGE and native ESI-MS
Procedure: To the solution of Trastuzumab (100 uL, 10 mg/mL in 50 mM borate buffer pH 8.5) was added 1.74 uL of the solution of 18 (10 mg/mL in DMSO). After incubation for 1 h at 25° C. was added 0.69 uL of TAMRA-SH (100 mM in DMSO). The mixture was incubated at 25° C. for 16 h and the conjugate was purified by size exclusion chromatography.
The comparison experiment was carried out using 4-(N-maleimidomethyl)cyclohexanecarboxylic acid N-hydroxysuccinimide ester (SMCC) instead of 18.

Trastuzumab [4] = test: Rebridging of antibody fragments, SDS-PAGE in reducing conditions; conditions: Trastuzumab reduced with 5 eq. TCEP, 15 eq. compound, 16 h at 25° C.
Procedure: To the solution of Trastuzumab (100 uL, 10 mg/mL in 50 mM PBS pH 7.4 with 10 mM of EDTA) was added the solution of TCEP (10 mM in water, 5 eq.). The mixture was incubated at 37° C. for 2 h and then the solution of 33 or 34 (10 mM in DMSO, 15 eq.) was added. The resulting solution was incubated for 16 h at 25° C. and then analyzed by SDS-PAGE in reducing conditions.

[5] = system: partially reduced Trastuzumab; test: Direct conjugation to partially reduced Trastuzumab, SDS-PAGE and ESI-MS
Procedure: To the solution of Trastuzumab (100 uL, 10 mg/mL in 50 mM PBS pH 7.4 with 10 mM of EDTA) was added the solution of TCEP (10 mM in water, 1.1 or 2.2 eq.). The mixture was incubated at 37° C. for 2 h and then the solution of 58 (8.25 μL, 10 mM in DMSO) was added. The mixture was incubated at 25° C. for 16 h and the conjugate was purified by size exclusion chromatography.

[6] = Stability of the addition product in different working solutions, HPLC; format: physicochemical; conditions: for Conversion of “addition product” in 1 h: 100 μM, 25° C.
Procedure: A 100 mM stock solution of the “addition product”
[drawing 113] was prepared in DMSO and stored at −20° C. 1 μL of the stock solution was added to 999 μL of working solutions to give 100 μM final concentration of substrate. Aliquots were analyzed at 0, 30 and 60 min. Areas under peak of starting material were normalized according to the area of the peak of the internal standard (benzamide). All measurements were carried at 25° C.

[7] = Selectivity screening of electrophiles, whole panel of amino acid models; conditions: 1 hour, PBS (1×, pH 7.6), 1 mM reagents
Procedure: Screening for selectivity was done on benzylamides of non-protected amino acids. 100 mM stock solutions of benzylamides of amino acids (in form of TFA salts) and electrophiles (phenylpropiolonitrile and phenylmaleimide) were prepared in DMSO and stored at −20° C. A 100 mM stock solution of benzamide (used as an internal standard) was prepared in distilled water and stocked at −20° C. Analyses of reaction mixtures were conducted with Shimadzu LC with SunFire™ C18 5 μM 4.6×150 mm column (Waters). HPLC parameters were as follows: flow rate 1 mL/min, gradient from 5 to 95% of mobile phase B from 0 to 20 min, followed by 5 min at 95% of mobile phase and post time of 5 min. Mobile phase A was 0.05% TFA in water (mQ) (v/v), and mobile phase B was acetonitrile (HPLC grade). Data were analyzed using Shimadzu analysis software. Signals were normalized according to the area of the peak of the internal standard (benzamide). […]
10 μL of the stock solution of amino acid benzamide and 2.5 μL of the stock solution of benzamide were added to a vial containing 977.5 μL of PBS (1×, pH 7.6). […] Aliquots of the reaction mixture (50 μL) were analyzed by HPLC for 1 hour of hydrolysis (injections at 0, 30 and 60 min). […] Masses of corresponding adducts were detected by mass spectrometry (ESI-LCMS) in some cases (shown in bold, Table 4).

[8] = Selectivity screening of electrophiles on amino acid benzylamides, HPLC; conditions: in 1 hour in PBS (1×, pH 7.6) in presence of the electrophile, 1 mM reagents
Procedure: Screening for selectivity was done on benzylamides of non-protected amino acids. 100 mM stock solutions of benzylamides of amino acids (in form of TFA salts) and electrophiles (phenylpropiolonitrile and phenylmaleimide) were prepared in DMSO and stored at −20° C. A 100 mM stock solution of benzamide (used as an internal standard) was prepared in distilled water and stocked at −20° C. Analyses of reaction mixtures were conducted with Shimadzu LC with SunFire™ C18 5 μM 4.6×150 mm column (Waters). HPLC parameters were as follows: flow rate 1 mL/min, gradient from 5 to 95% of mobile phase B from 0 to 20 min, followed by 5 min at 95% of mobile phase and post time of 5 min. Mobile phase A was 0.05% TFA in water (mQ) (v/v), and mobile phase B was acetonitrile (HPLC grade). Data were analyzed using Shimadzu analysis software. Signals were normalized according to the area of the peak of the internal standard (benzamide). Areas under the peaks of the amino acid benzylamides were used to calculate their conversion during reaction.
10 μL of the stock solution of amino acid benzamide and 2.5 μL of the stock solution of benzamide were added to a vial containing 977.5 μL of PBS (1×, pH 7.6). The solution was stirred and 10 μL of the stock solution of electrophile were added to give 1 mM final concentrations of reagents and 0.25 mM concentration of benzamide. Aliquots of the reaction mixture (50 μL) were analyzed by HPLC for 1 hour of hydrolysis (injections at 0, 30 and 60 min). Areas under the peaks of the starting materials and hydrolysis products were normalized according to the area of peak of the internal standard. In case of phenylpropiolonitrile, none of amino acid models gave more than 1.6% conversion (see table 3 below). […] Masses of corresponding adducts were detected by mass spectrometry (ESI-LCMS) in some cases (shown in bold, Table 4).

[9] = conversion of the compound in 30 minutes in presence of 7m
[10] = conversion in 60 minutes in presence of 7m

## COc1ccccc1C#CC#N [Compound 1, 3-(2-Methoxyphenyl)propiolonitrile]
[1]; PBS (1×, pH 7.6), 1 mM, 25° C.
  kobs (pseudo first order rate constant of hydrolysis): 7e-05 s⁻¹
[1]; after 1 h in buffer solution
  hydrolyzed: approximately 25%
[2]; [9]
  Conversion: 10.1%

## COc1cccc(C#CC#N)c1 [Compound 2, 3-(3-Methoxyphenyl)propiolonitrile]
[2]; [9]
  Conversion: 46.8%

## COc1ccc(C#CC#N)cc1 [Compound 3, 3-(4-Methoxyphenyl)propiolonitrile]
[2]; [9]
  Conversion: 14.6%

## COc1cccc(OC)c1C#CC#N [Compound 4, 3-(2,6-Dimethoxyphenyl)propiolonitrile]
[2]; [10]
  Conversion: 4.8%**

## N#CC#Cc1ccccc1N [Compound 5, 3-(2-Aminophenyl)propiolonitrile]
[2]; [9]
  Conversion: 10.8%

## N#CC#Cc1cccc(N)c1 [Compound 6, 3-(3-Aminophenyl)propiolonitrile]
[2]; [9]
  Conversion: 42.0%

## N#CC#Cc1ccc(N)cc1 [Compound 7, 3-(4-Aminophenyl)propiolonitrile]
[2]; [9]
  Conversion: 7.4%

## Cc1ccccc1C#CC#N [Compound 8, 3-(o-Tolyl)propiolonitrile]
[2]; [9]
  Conversion: 10.3%

## Cc1cccc(C)c1C#CC#N [Compound 9, 3-(2,6-Dimethylphenyl)propiolonitrile]
[2]; [10]
  Conversion: 2.3%**

## N#CC#Cc1ccccc1[N+](=O)[O-] [Compound 10, 3-(2-Nitrophenyl)propiolonitrile]
[2]; [9]
  Conversion: 70.4%*

## CC(=O)Nc1ccc(C#CC#N)cc1 [Compound 11, N-(4-(Cyanoethynyl)phenyl)acetamide]
[1]; PBS (1×, pH 7.6), 1 mM, 25° C., up to 5 hours of monitoring
  hydrolysis (in words): no hydrolysis could be detected; also recorded: No detectable conversion; also recorded: no detectable change in concentration
[1]; after a week at room temperature
  hydrolysis (in words): no trace of hydrolyzed product could be detected
[2]; [9]
  Conversion: 52.3%

## CNC(=O)c1ccc(C#CC#N)cc1 [Compound 12, 4-(Cyanoethynyl)-N-methylbenzamide]
[2]; [9]
  Conversion: 85.5%

## N#CC#Cc1ccc(C(=O)Oc2c(F)c(F)c(S(=O)(=O)O)c(F)c2F)cc1 [Compound 18, Sodium 4-((4-(cyanoethynyl)benzoyl)oxy)-2,3,5,6-tetrafluorobenzenesulfonate]
Trastuzumab [3]; SDS-PAGE, Trastuzumab + TAMRA-SH, versus SMCC
  level of conjugation (in words): higher levels of conjugation comparing to SMCC
Trastuzumab [3]; native ESI-MS of the conjugate
  molecules of TAMRA conjugated per antibody, in average: one
  population of conjugates (in words): cleaner population of conjugates

## N#CC#Cc1ccccc1C#CC#N [Compound 33, 3,3′-(1,2-Phenylene)dipropiolonitrile]
Trastuzumab [4]
  bridging of antibody fragments (in words): successfully bridged

## N#CC#Cc1cccc(C#CC#N)c1 [Compound 34, 3,3′-(1,3-Phenylene)dipropiolonitrile]
Trastuzumab [4]
  bridging of antibody fragments (in words): successfully bridged

## CN(C)c1ccc2c(-c3cc(C(=O)NCc4cn(-c5ccc(C#CC#N)cc5)nn4)ccc3C(=O)[O-])c3ccc(=[N+](C)C)cc-3oc2c1 [Compound 58, 4-(((1-(4-(cyanoethynyl)phenyl)-1H-1,2,3-triazol-4-yl)methyl)carbamoyl)-2-(6-(dimethylamino)-3-(dimethyliminio)-3H-xanthen-9-yl)benzoate]
[5]; ESI-MS, 2.2 eq. of TCEP
  molecules conjugated per antibody, in average: 4
[5]; SDS-PAGE of the conjugates
  attachment to the antibody (in words): covalently attached to the antibody

## O=C(ON1C(=O)CCC1=O)C1CCC(CN2C(=O)C=CC2=O)CC1 (stereo not drawn) [SMCC, 4-(N-maleimidomethyl)cyclohexanecarboxylic acid N-hydroxysuccinimide ester, reference compound]
Trastuzumab [3]; native ESI-MS of the conjugate
  population of conjugates (in words): complex mixture of undistinguishable species

## N#CC=C(SCC(N)C(=O)NCc1ccccc1)c1ccccc1 (stereo not drawn) [addition product]
[6]; 100 mM PhSH in PBS(7.4):DMSO = 80:20
  Conversion of “addition product” in 1 h: 0.7%
[6]; 1M Glutathione reduced (GSH) in PBS (7.4)
  Conversion of “addition product” in 1 h: 0.4%
[6]; 1M H2O2
  Conversion of “addition product” in 1 h: 1.8%
[6]; 1M HCl (pH = 0)
  Conversion of “addition product” in 1 h: 0.1%
[6]; 1M Imidazole in PBS (7.4)
  Conversion of “addition product” in 1 h: 0.5%
[6]; 1M NaOH (pH = 14)
  Conversion of “addition product” in 1 h: 3.4%
[6]; 1 hour with an excess of phenylthiol or glutathione
  thiol exchange (in words): no exchange product could be observed; also recorded: hardly any thiol exchange is observed
[6]; wide range of conditions, pH from 0 to 14
  stability (in words): stable in a wide range of pH (from 0 to 14); also recorded: stable and undergoes very little degradation in a wide range of conditions

## N#CC#Cc1ccccc1 [phenylpropiolonitrile]
[7]
  highest conversion among the amino acid models other than cysteine: ≤ 1.6%
[8]
  Conversion of AlaNHBn (7c): 0.1%
  Conversion of ArgNHBn (7k): 0.4%
  Conversion of AspNHBn (7l): 0.6%
  Conversion of CysNHBn (7a): 98%
  Conversion of GlnNHBn (7i): 0.1%
  Conversion of GlyNHBn (7b): 0.2%
  Conversion of HisNHBn (7h): 0.6%
  Conversion of MetNHBn (7f): 0.1%
  Conversion of SerNHBn (7e): 0.3%
  Conversion of TrpNHBn (7j): 1.3%
  Conversion of TyrNHBn (7g): 1.6%
  Conversion of ValNHBn (7d): 0.7%
